In PMC10545732, “Structure-based drug discovery of a corticotropin-releasing hormone receptor 1 antagonist using an X-ray free-electron laser” (Experimental & Molecular Medicine, 2023):
Entries after “also recorded” stand apart in the source; their conditions may differ.

Key:
ACTH serum levels = test: Serum ACTH level after TST (ELISA); format: in vivo, mice; conditions: 30 mg/kg orally for 3 days, immediately after TST
Method: The mice were anesthetized via intraperitoneal injections of 2,2,2-tribromoethanol (300 mg/kg, Sigma-Aldrich) immediately after the TST and before blood from the heart was sampled. Blood samples were collected in plastic tubes and incubated at room temperature for at least 2 h. The sera were extracted after centrifugation at 13,000×g for 10 min at 4 °C. CORT levels were determined via LC‒MS analysis. Serum (10 µL) was mixed with 20 μL of an internal standard solution (d4-cortisol) to prepare the samples. Subsequently, 100 μL of acetonitrile was added, and the mixture was centrifuged at 16,000×g for 10 min for protein precipitation. The supernatants (60 μL) were transferred into an autosampler vial, and 30 μL of water was added for efficient separation via high-performance liquid chromatography (HPLC). LC‒MS was performed with a triple quadrupole mass spectrometer coupled with HPLC using a C18 reversed-phase column. CORT levels were determined using a calibration curve constructed using CORT-spiked mouse serum. Serum samples (20 μL) were analyzed using a commercially available ELISA kit for ACTH (ab263880, Abcam) to measure ACTH serum levels.

hCMECs/D3 = test: In vitro BBB permeability assay; format: in vitro ADME, human
Method: Human cerebral microvascular endothelial cells (hCMECs/D3, SCC066; Sigma-Aldrich) were used to assess the permeability of CRF1R antagonists across the BBB. hCMECs were seeded on Falcon^TM cell culture inserts (08-770, Fisher Scientific) with 0.4 μm pore sizes precoated with collagen type I from rat tails (354236, Corning) at a density of 50,000 cells/mL in endothelial cell growth medium-2 (EGM-2, CC-3162; Lonza). The medium was changed with EGM-2 every three to four days for proliferation and with EGM-2 containing 2.5% human serum (SLBX6020, Sigma-Aldrich) for differentiation. Cell culture inserts were transferred into 24-well plates containing 700 μL of EGM-2 in each well (basolateral compartment) for the permeability assay. The medium in the inserts (apical compartment) was then replaced with 300 μL EGM-2 containing 10 μM BMK-C203 or BMK-C205. Apical and basolateral compartments were collected after a 12-h incubation at 37 °C, and drug concentrations were measured using HPLC. For sample preparation, 50 μL of the sample was mixed with 10 μL of an internal standard solution (d4-cortisol). Subsequently, 50 μL of acetonitrile was added, and the mixture was centrifuged at 16,000×g for 10 min for protein precipitation. The supernatants were used for LC‒MS analysis with a triple quadrupole mass spectrometer coupled with HPLC using a C18 reversed-phase column. The concentration of the antagonists was determined using a calibration curve. The permeability coefficient (P) was calculated according to Pardridge et al.[34]. The permeability-surface area product (PS, in cm^3/s) was divided by the filter surface area A (in cm^2) using Eq. (1) as follows:1 Pcm/s=Vd×△Ma/A×[…]×△t where Vd is the volume in the donor compartment in cm^3, ΔMa is the total amount of the compound in the […] compartment after t seconds, Md is the donor amount, Δt is the incubation time, and A is the filter area in cm^2.

Row | SMILES | serum ACTH level versus vehicle (ACTH serum levels) | permeability coefficient relative to BMK-C203 (hCMECs/D3)
1 | COc1cc(Br)cc(OC)c1-c1c(C)nn2c(N(CCCC(F)(F)F)CCCC(F)(F)F)nc(C)nc12 [BMK-C203] | decreased; also recorded: lower than those in the vehicle group; also recorded: significantly affected | –
2 | CCCCN(CC1CC1)c1nc(C)nc2c(-c3c(OC)cc(Br)cc3OC)c(C)nn12 [BMK-C205] | decreased; also recorded: lower than those in the vehicle group | seven times higher
